The NIST ThermoML archive (doi:10.1021/je049907t)
Numbers after ± are expanded uncertainties.

Columns and labels:
[1] = for Normal melting temperature: Crystal 1, visual observation
[2] = Molar enthalpy of transition or fusion; settings: Crystal

| Triple point temperature ([1]; Crystal) [K] | Molar enthalpy of transition or fusion [2] [kcal/mol] | Normal melting temperature [1] [°C] | SMILES |
| --- | --- | --- | --- |
| 504.84 ± 1 | 8.17 ± 0.454 | – | c1ccc(-c2nc[nH]c2-c2ccccc2)cc1 [4,5-diphenylimidazole] |
| – | – | 146 ± 0.5 | Cc1ncc[nH]1 [2-methylimidazole] |
| – | – | 178.28 ± 0.5 | Cc1nc2ccccc2[nH]1 [2-methylbenzimidazole] |
| – | – | 172.36 ± 0.5 | c1ccc2[nH]cnc2c1 [benzimidazole] |
